Results: patent publication US20070128217A1 (priority 2003, published 2007)

Key:
[1] = test system: control sera (pooled serum of ten healthy LUMC hospital workers; commercial negative donor pooled serum from the Dutch bloodbank); format: binding, human; design: Binding of Control serum LUMC to linear peptides / Binding of Control serum Blood-bank to linear peptides / Binding of Control serum LUMC to looped peptides / Binding of Control Serum Blood-Bank to Looped peptides / Binding of Control serum LUMC to linear peptides of the protein M of SARS-CoV Urbani / Binding of Control serum Blood-bank to linear peptides of the protein M of SARS-CoV Urbani / Binding of Control serum LUMC to looped peptides of the protein M of SARS-CoV Urbani / Binding of Control Serum Blood-Bank to Looped peptides of the protein M of SARS-CoV Urbani: unit not given here
[2] = test system: rabbit serum obtained by immunizing a rabbit with the SARS-CoV strain Frankfurt 1; format: binding; design: Binding of a rabbit serum to linear peptides / Binding of a rabbit serum to looped peptides / Rabbit serum linear peptides / Rabbit serum looped peptides / Binding of a rabbit serum to linear peptides of protein N of SARS-CoV Urbani (Rabbit serum linear peptides) / Binding of a rabbit serum to looped/cyclic peptides of protein N of SARS-CoV Urbani (Rabbit serum looped peptides): unit not given here
[3] = test system: antibodies in sera from SARS patients (sera 1a, 1b, 2, 6, 37, 62, London, SARS-yellow, SARS-green); format: binding, human; design: Binding of serum 6 to linear peptides of protein X1 of SARS-CoV Urbani / Binding of serum 37 to linear peptides of protein X1 of SARS-CoV Urbani / Binding of serum 6 to looped/cyclic peptide (PEPSCAN-ELISA) / Binding of serum 37 to looped/cyclic peptide (PEPSCAN-ELISA) / Binding of serum 37 to looped/cyclic peptides of protein X1 of SARS-CoV Urbani / Binding of serum 6 to linear peptides of protein X2 / Binding of serum 37 to linear peptides of protein X2 / Binding of serum 37 to looped/cyclic peptides of protein X2 of SARS-CoV Urbani / Binding of serum 6 to linear peptides of protein M of SARS-CoV Urbani / Binding of serum 37 to linear peptides of protein M of SARS-CoV Urbani / Binding of serum 6 to looped/cyclic peptides of protein M of SARS-CoV Urbani / Binding of serum 37 to looped/cyclic peptides of protein M of SARS-CoV Urbani / Binding of serum 6 to linear peptides of protein X3 of SARS-CoV Urbani / Binding of serum 37 to linear peptides of protein X3 of SARS-CoV Urbani / Binding of serum 37 to looped/cyclic peptides of protein X3 of SARS-CoV Urbani / Binding of serum 6 to linear peptides of protein X4 of SARS-CoV Urbani / Binding of serum 37 to linear peptides of protein X4 of SARS-CoV Urbani / Binding of serum 37 to looped/cyclic peptides of protein X4 of SARS-CoV Urbani / Binding of serum 6 to linear peptides of protein X5 of SARS-CoV Urbani / Binding of serum 37 to linear peptides of protein X5 of SARS-CoV Urbani / Binding of serum 37 to looped/cyclic peptides of protein X5 of SARS-CoV Urbani / Binding of serum 6 to linear peptides of protein N of SARS-CoV Urbani / Binding of serum 37 to linear peptides of protein N of SARS-CoV Urbani / Binding of serum 6 to linear peptide (PEPSCAN-ELISA) / Binding of serum 1a to looped/cyclic peptides of protein N of SARS-CoV Urbani / Binding of serum 1b to looped/cyclic peptides of protein N of SARS-CoV Urbani / Binding of serum 2 to looped/cyclic peptides of protein N of SARS-CoV Urbani / Binding of serum 6 to looped/cyclic peptides of protein N of SARS-CoV Urbani / Binding of serum 37 to looped/cyclic peptides of protein N of SARS-CoV Urbani / Binding of serum 62 to looped/cyclic peptides of protein N of SARS-CoV Urbani / Binding of serum London to looped/cyclic peptides of protein N of SARS-CoV Urbani / Binding of serum SARS-green to looped/cyclic peptides of protein N of SARS-CoV Urbani: unit not given here
[4] = test system: recombinant human anti-SARS-CoV antibody 03-018; format: binding; design: Binding of antibody 03-018 to linear peptides of the N protein of SARS-CoV Urbani / Binding of antibody 03-018 to looped/cyclic peptides of the N protein of SARS-CoV Urbani: unit not given here

Sequence	Binding of a rabbit serum to linear peptides of protein N of SARS-CoV Urbani (Rabbit serum linear peptides) [2]	Binding of a rabbit serum to looped/cyclic peptides of protein N of SARS-CoV Urbani (Rabbit serum looped peptides) [2]	Binding of serum 1a to linear peptides of protein N of SARS-CoV Urbani [3]	Binding of serum 1a to looped/cyclic peptides of protein N of SARS-CoV Urbani [3]	Binding of serum 1b to linear peptides of protein N of SARS-CoV Urbani [3]	Binding of serum 1b to looped/cyclic peptides of protein N of SARS-CoV Urbani [3]	Binding of serum 2 to linear peptides of protein N of SARS-CoV Urbani [3]	Binding of serum 2 to looped/cyclic peptides of protein N of SARS-CoV Urbani [3]	Binding of serum 6 to linear peptides of protein N of SARS-CoV Urbani [3]	Binding of serum 6 to looped/cyclic peptides of protein N of SARS-CoV Urbani [3]	Binding of serum 37 to linear peptides of protein N of SARS-CoV Urbani [3]	Binding of serum 37 to looped/cyclic peptides of protein N of SARS-CoV Urbani [3]	Binding of serum 62 to linear peptides of protein N of SARS-CoV Urbani [3]	Binding of serum 62 to looped/cyclic peptides of protein N of SARS-CoV Urbani [3]	Binding of serum London to linear peptides of protein N of SARS-CoV Urbani [3]	Binding of serum London to looped/cyclic peptides of protein N of SARS-CoV Urbani [3]	Binding of serum SARS-green to looped/cyclic peptides of protein N of SARS-CoV Urbani [3]	Binding of serum SARS-yellow to looped/cyclic peptides of protein N of SARS-CoV Urbani [3]	Binding of antibody 03-018 to linear peptides of the N protein of SARS-CoV Urbani [4]	Binding of antibody 03-018 to looped/cyclic peptides of the N protein of SARS-CoV Urbani [4]	also measured
SGTWLTYHGAIKLDD	0.1	0.5	0.2	0.8	0.1	0.5	0.1	0.7	0.1	0.4	0.7	1.0	0.5	1.2	0.6	0.8	1.8	1.6	0.1	0.2	Control Serum Blood-Bank Looped peptides [1]: 1.0; Control serum Blood-bank linear peptides [1]: 0.5; Control serum LUMC linear peptides [1]: 0.5; Control serum LUMC looped peptides [1]: 0.8; Binding of serum SARS-green to linear peptides of protein N of SARS-CoV Urbani [3]: 0.5; Binding of serum SARS-yellow to linear peptides of protein N of SARS-CoV Urbani [3]: 0.6
SKVSGKGQQQQGQTV	0.1	0.6		0.4		0.2		0.7		0.4		0.6		0.6		0.8	0.5	0.6	0.1	0.2	Binding of Control Serum Blood-Bank to Looped peptides [1]: 0.8; Binding of Control serum Blood-bank to linear peptides [1]: 0.6; Binding of Control serum LUMC to linear peptides [1]: 0.7; Binding of Control serum LUMC to looped peptides [1]: 0.8; Binding of serum 1a to linear peptide (PEPSCAN-ELISA) [3]: 0.2; Binding of serum 1b to linear peptide (PEPSCAN-ELISA) [3]: 0.1; Binding of serum 2 to linear peptide (PEPSCAN-ELISA) [3]: 0.3; Binding of serum 6 to linear peptide (PEPSCAN-ELISA) [3]: 0.1; Binding of serum 37 to linear peptide (PEPSCAN-ELISA) [3]: 0.5; Binding of serum 62 to linear peptide (PEPSCAN-ELISA) [3]: 0.6; Binding of serum London to linear peptide (PEPSCAN-ELISA) [3]: 0.5; Binding of serum SARS-green to linear peptide (PEPSCAN-ELISA) [3]: 0.3; Binding of serum SARS-yellow to linear peptide (PEPSCAN-ELISA) [3]: 0.7
SLPYGANKEGIVWVA	0.2	0.3	0.3	0.3	0.1	0.2	0.2	0.5	0.2	0.3	0.8	0.7	1.2	0.6	0.6	0.4	0.3	0.4	0.1	0.2	Binding of Control Serum Blood-Bank to Looped peptides [1]: 0.6; Binding of Control serum Blood-bank to linear peptides [1]: 0.9; Binding of Control serum LUMC to linear peptides [1]: 0.7; Binding of Control serum LUMC to looped peptides [1]: 0.6; Binding of serum SARS-green to linear peptides of protein N of SARS-CoV Urbani [3]: 0.5; Binding of serum SARS-yellow to linear peptides of protein N of SARS-CoV Urbani [3]: 0.7
